Holding throughout (format): cell-based
In assay [1] the test system is mouse macrophages (RAW264.7). Kind of assay: Lipopolysaccharide-induced NO secretion in macrophages (Griess). To be noted: Mus musculus, RAW264.7, 24 h, RAW264.7, LPS 1 μg/ml, a/b isomers given as first/second symbol, read-out: IC50 (μM), inhibition of lipopolysaccharide-induced NO secretion in macrophages. The procedure, abridged:
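RAW264.7 macrophages in DMEM with 10% FBS received test samples at several concentrations and were stimulated with 1 μg/ml LPS for 24 h. NO in the supernatant was measured with the Griess reagent at 548 nm, […].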

Assay [2] relates to human embryonic lung fibroblast IMR-90. Description: Anti-fibrosis activity test: inhibition of proliferation of human embryonic lung fibroblast IMR-90 (CCK-8). The following applies: human embryonic lung fibroblast IMR-90, CCK-8, 48 hours. The procedure, abridged: (§1)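 Cells seeded at 2×10^4 cells/mL, adhered 24 h, then exposed to compound concentrations in triplicate for 48 h at 37° C, 5% CO2. CCK-8 added for 2 h, absorbance at 450 nm; inhibition = (1−Ai/Ao)×100% versus blank control, IC50 calculated.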

Assay [3] has as its system human lung fibroblasts HFL1. Kind of assay: Anti-fibrosis activity test: inhibition of proliferation of human lung fibroblasts HFL1 (CCK-8). The following applies: Homo sapiens, HFL1, 48 h, human lung fibroblasts HFL1, CCK-8, 48 hours. The procedure, abridged: as §1
Assay [4] has as its system human dermal fibroblasts CCC-ESF-1. Kind of assay: Anti-fibrosis activity test: inhibition of proliferation of human dermal fibroblasts CCC-ESF-1 (CCK-8). The following applies: Fibroblast; human dermal fibroblasts CCC-ESF-1, CCK-8, 48 hours. In short, it runs like this: as §1
The subject of assay [5] is human hepatic stellate cells LX-2. Description: Anti-fibrosis activity test: inhibition of proliferation of human hepatic stellate cells LX-2 (CCK-8). The following applies: Homo sapiens, 48 h, human hepatic stellate cells LX-2, CCK-8, 48 hours. In short, it runs like this:
as §1

The test system of assay [6] is human fibrosarcoma cells HT-1080. Kind of assay: Anti-fibrosis activity test: inhibition of proliferation of human fibrosarcoma cells HT-1080 (CCK-8). The following applies: Homo sapiens, HT-1080, 48 h, human fibrosarcoma cells HT-1080, CCK-8, 48 hours. The procedure, abridged: as §1
In assay [7] the test system is NF-κB. Kind of assay: Immunological activity test: inhibition of NF-κB activity. The following applies: initial concentration of 30 μM; a/b isomers given as first/second symbol; read-out: IC50 (μM), inhibitory activity against NF-κB. The procedure, abridged: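 NF-κB inhibition was tested at an initial 30 μM compound concentration, with parthenolide as positive control, and IC50 values were determined from follow-up analysis.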

Assay [8] deals with BHK-21 cells. Kind of assay: Anti-fibrosis activity test: inhibition of BHK-21 cell proliferation (CCK-8). To be noted: Mesocricetus auratus, BHK-21, 48 h, CCK-8, 48 hours after administration. In short, it runs like this: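 Each concentration was tested in triplicate on adhered BHK-21 cells for 48 h, with pirfenidone as reference. A 2 h CCK-8 incubation preceded absorbance reading at 450 nm, and IC50 was obtained from percent inhibition versus blank.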

In assay [9] the test system is cardiac fibroblast RAT-iCell-C002. Description: Anti-fibrosis activity test: inhibition of proliferation of cardiac fibroblast RAT-iCell-C002 (CCK-8). The following applies: Cardiac fibroblast, 48 h, cardiac fibroblast RAT-iCell-C002, CCK-8, 48 hours. In short, it runs like this: as §1

Structures are written as SMILES.

The term IC50 denotes the point on the concentration scale where inhibition reaches its midpoint. `O=C1c2c(n(Cc3cccc(F)c3)c3c(F)cccc3c2=O)-c2cccn21` [Compound 458a, 5-Fluoro-4-(3-fluorobenzyl)-9H-pyrrolizino[1,2-b]quinoline-9,10(4H)-dione]: the IC50 in [1] was in the range of 1 to 10 µM; in [2], 0.05 to 5 mM; in assay [3], 0.05 to 5 mM; in assay [4], 0.05 to 5 mM; in [5], 0.05 to 5 mM; in assay [6], 0.05 to 5 mM. For the same molecule, the half-maximal inhibitory concentration (IC50) in assay [7] was 0.1 to 1 µM; in [8], less than 0.05 mM; in assay [9], 0.05 to 5 mM.
Turning to `O=C1c2c(nc3c(F)cccc3c2OCc2cccc(F)c2)-c2cccn21` [Compound 458b, 5-fluoro-9-((3-fluorobenzyl)oxy)-10H-pyrrolizino[1,2-b]quinolin-10-one], the half-inhibitory concentration (IC50) in assay [1] is 1 to 10 µM; in assay [2], 0.05 to 5 mM; in assay [3], 0.05 to 5 mM; in [4], 0.05 to 5 mM; in [5] it was 0.05 to 5 mM; in assay [6], 0.05 to 5 mM. For the same molecule, the IC50 in [7] lay in the range of 1 to 10 µM; in assay [8], 0.05 to 5 mM; in [9], 0.05 to 5 mM.
As for `N#Cc1cccc2c1c(=O)c1c(n2Cc2ccc(F)cc2)-c2cccn2C1=O` [Compound 462a, 4-(4-Fluorobenzyl)-9,10-dioxo-4,10-dihydro-9H-pyrrolizino[1,2-b]quinoline-8-carbonitrile], the IC50 in assay [1] was in the range of 1 to 10 µM; in [2] it was 0.05 to 5 mM; in [3] it was 0.05 to 5 mM; in [4], 0.05 to 5 mM; in assay [5], 0.05 to 5 mM; in assay [6] it was 0.05 to 5 mM. Moreover, the IC50 in [7] is 0.1 to 1 µM; in assay [8], less than 0.05 mM; in assay [9], 0.05 to 5 mM.
Turning to `N#Cc1cccc2nc3c(c(OCc4ccc(F)cc4)c12)C(=O)n1cccc1-3` [Compound 462b, 9-((4-fluorobenzyl)oxy)-10-oxo-10H-pyrrolizino[1,2-b]quinoline-8-carbonitrile], the IC50 in [1] was in the range of 1 to 10 µM; in assay [2], 0.05 to 5 mM; in assay [3], 0.05 to 5 mM; in assay [4] it was 0.05 to 5 mM; in assay [5] it was 0.05 to 5 mM; in [6], 0.05 to 5 mM. Moreover, the IC50 in assay [7] was 0.1 to 1 µM; in [8] it was 0.05 to 5 mM; in assay [9], 0.05 to 5 mM.
Consider `O=C1c2c([nH]c3cccc(Cl)c3c2=O)-c2cccn21` [Compound 464a, 8-Chloro-9H-pyrrolizino[1,2-b]quinoline-9,10(4H)-dione], for which the IC50 was 1 to 10 µM in assay [1]; 0.05 to 5 mM in assay [2]; less than 0.05 mM in assay [3]; 0.05 to 5 mM in assay [4]; 0.05 to 5 mM in assay [5]; 0.05 to 5 mM in assay [6]. Also, the IC50 in [7] was 1 to 10 µM; in assay [8], less than 0.05 mM; in assay [9] it was 0.05 to 5 mM.
Consider `O=C1c2c(nc3cccc(Cl)c3c2O)-c2cccn21` [Compound 464b, 8-chloro-9-hydroxy-10H-pyrrolizino[1,2-b]quinolin-10-one], for which the IC50 in assay [1] was 1 to 10 µM; in [2], 0.05 to 5 mM; in [3], less than 0.05 mM; in [4] it was 0.05 to 5 mM; in [5], 0.05 to 5 mM; in [6], 0.05 to 5 mM. The figures for the IC50 in [7], in assay [8] and in assay [9] were 1 to 10 µM, 0.05 to 5 mM and 0.05 to 5 mM, respectively.
With `O=C1c2c(n(Cc3ccc(F)cc3)c3cccc(F)c3c2=O)-c2cccn21` [Compound 468a, 8-Fluoro-4-(4-fluorobenzyl)-9H-pyrrolizino[1,2-b]quinoline-9,10(4H)-dione], the IC50 in assay [1] is 1 to 10 µM; in assay [2], 0.05 to 5 mM; in assay [3] it was 0.05 to 5 mM; in assay [4], 0.05 to 5 mM; in [5], 0.05 to 5 mM; in assay [6], 0.05 to 5 mM. Moreover, the IC50 is 0.1 to 1 µM in [7], less than 0.05 mM in assay [8] and 0.05 to 5 mM in assay [9].
Consider `O=C1c2c(nc3cccc(F)c3c2OCc2ccc(F)cc2)-c2cccn21` [Compound 468b, 8-fluoro-9-((4-fluorobenzyl)oxy)-10H-pyrrolizino[1,2-b]quinolin-10-one], for which the IC50 in assay [1] was 1 to 10 µM; in [2], 0.05 to 5 mM; in assay [3] it was 0.05 to 5 mM; in assay [4], 0.05 to 5 mM; in assay [5], 0.05 to 5 mM; in [6], 0.05 to 5 mM. Also, the IC50 in assay [7] lay within 1 to 10 µM; in assay [8] it was 0.05 to 5 mM; in [9], 0.05 to 5 mM.
As for `COc1cccc2[nH]c3c(c(=O)c12)C(=O)n1cccc1-3` [Compound 473a, 8-Methoxy-9H-pyrrolizino[1,2-b]quinoline-9,10(4H)-dione], the 50% inhibitory concentration (IC50) in assay [1] is 1 to 10 µM; in assay [2], 0.05 to 5 mM; in assay [3], 0.05 to 5 mM; in assay [4], 0.05 to 5 mM; in [5] it was 0.05 to 5 mM; in assay [6] it was 0.05 to 5 mM. Further, the IC50 in [7] is 1 to 10 µM; in [8], 0.05 to 5 mM; in assay [9], less than 0.05 mM.
For `COc1cccc2nc3c(c(O)c12)C(=O)n1cccc1-3` [Compound 473b, 9-hydroxy-8-methoxy-10H-pyrrolizino[1,2-b]quinolin-10-one], the IC50 lay within 1 to 10 µM in assay [1]; 0.05 to 5 mM in assay [2]; 0.05 to 5 mM in assay [3]; 0.05 to 5 mM in [4]; 0.05 to 5 mM in [5]; 0.05 to 5 mM in [6]. Also, the results for the IC50 in [7], in assay [8] and in [9] were 1 to 10 µM, 0.05 to 5 mM and 0.05 to 5 mM, respectively.
With `N#Cc1cccc2[nH]c3c(c(=O)c12)C(=O)n1cccc1-3` [Compound 476a, 9,10-Dioxo-4,10-dihydro-9H-pyrrolizino[1,2-b]quinoline-8-carbonitrile], the IC50 in assay [1] was in the range of 1 to 10 µM; in assay [2], 0.05 to 5 mM; in [3], 0.05 to 5 mM; in assay [4] it was 0.05 to 5 mM; in [5] it was 0.05 to 5 mM; in assay [6], 0.05 to 5 mM. Also, the IC50 in assay [7] is 10 to 50 µM; in [8] it was less than 0.05 mM; in assay [9] it was 0.05 to 5 mM.
Regarding `N#Cc1cccc2nc3c(c(O)c12)C(=O)n1cccc1-3` [Compound 476b, 9-hydroxy-10-oxo-10H-pyrrolizino[1,2-b]quinoline-8-carbonitrile], the IC50 in [1] is 1 to 10 µM; in [2] it was 0.05 to 5 mM; in assay [3] it was 0.05 to 5 mM; in assay [4], 0.05 to 5 mM; in assay [5], 0.05 to 5 mM; in assay [6], 0.05 to 5 mM. Further, the IC50 lay in the range of 10 to 50 µM in assay [7], 0.05 to 5 mM in assay [8] and 0.05 to 5 mM in [9].
For `O=C1c2c(n(Cc3ccc(Cl)cc3)c3cccc(Cl)c3c2=O)-c2cccn21` [Compound 477a, 8-Chloro-4-(4-chlorobenzyl)-9H-pyrrolizino[1,2-b]quinoline-9,10(4H)-dione], the IC50 in assay [1] fell in the range of 1 to 10 µM; in assay [2] it was 0.05 to 5 mM; in assay [3], 0.05 to 5 mM; in assay [4], 0.05 to 5 mM; in [5] it was 0.05 to 5 mM; in assay [6], 0.05 to 5 mM. In addition, the IC50 in assay [7] was in the range of 10 to 50 µM; in assay [8], 0.05 to 5 mM; in [9] it was 0.05 to 5 mM.

(Values after US11040028B2, “Penicinotam derivative, preparation method and use thereof” (OCEAN UNIVERSITY OF CHINA, priority 2017, dated 2021).)
